Measured values published in article PMC9944328 (Nature Communications, 2023).
Values joined by “and” are separate entries in the source; they are usually repeats but may differ in a detail not shown here. Identical values can stand only once. “Also recorded” adds a separate entry of the source.

Legend:
SSTR2 mutants [1] = molecular target: SSTR2 mutants (Homo sapiens, UniProt P30874); experiment: SSTRs Gi-mediated cAMP inhibition, GloSensor, HEK293, 5 μM forskolin, 15 min room temperature (SSTR2 mutants); type: cell-based; set-up: Best-fit Bottom, cAMP inhibition / Best-fit Top, cAMP inhibition / Span, cAMP inhibition / Bottom (best-fit value) / Top (best-fit value) / Span (best-fit value) / Span (best-fit) / Bottom (best-fit) / Top (best-fit) / Best-fit Bottom / Best-fit Top / Best-fit Span / Top / Span: scale not given here
Sequence of SSTR2 mutants (Homo sapiens, UniProt P30874) (P30874 whole entry Y205R): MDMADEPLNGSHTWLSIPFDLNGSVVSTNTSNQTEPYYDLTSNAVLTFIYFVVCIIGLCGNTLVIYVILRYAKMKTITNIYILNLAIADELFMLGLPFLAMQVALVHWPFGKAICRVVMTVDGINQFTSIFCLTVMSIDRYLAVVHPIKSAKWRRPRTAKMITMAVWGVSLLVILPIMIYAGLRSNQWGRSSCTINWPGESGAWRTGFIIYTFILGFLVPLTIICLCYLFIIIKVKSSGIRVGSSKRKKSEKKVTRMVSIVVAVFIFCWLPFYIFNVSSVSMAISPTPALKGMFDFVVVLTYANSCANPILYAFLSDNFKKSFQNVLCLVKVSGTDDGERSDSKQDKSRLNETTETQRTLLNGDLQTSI
Summary of the method: (§1)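 GloSensor cAMP readout after 15 min room-temperature exposure to ligand together with 5 μM forskolin, following 40 min equilibration in HBSS with luciferin. Cells: HEK293 transiently expressing tagged human wild-type or mutant SSTR with the sensor; at least three independent experiments averaged.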

SSTR2 mutants [2] = molecular target: T1, SSTR2 mutants (Homo sapiens, UniProt P30874, I195A); experiment: as above; type: cell-based; set-up: Best-fit Bottom, cAMP inhibition / Best-fit Top, cAMP inhibition / Span, cAMP inhibition / Bottom (best-fit value) / Top (best-fit value) / Span (best-fit value) / Span (best-fit) / Bottom (best-fit) / Top (best-fit) / Best-fit Bottom / Best-fit Top / Best-fit Span / Top / Span: scale not given here; settings: I195A, best-fit, runs 1-3
T1 construct: The human full-length SSTRs and mutants were cloned into the pcDNA3.1+ vector; expressed in transfected cells; host or cells: HEK293 (ATCC, CRL-1573)
T1 sequence (P30874 whole entry I195A): as the sequence (P30874 whole entry Y205R) above, with I195A, R205Y counted along it
Summary of the method: as §1

SSTR2 mutants [3] = molecular target: T2, SSTR2 mutants (Homo sapiens, UniProt P30874, L99A); experiment: as above; type: cell-based; set-up: Best-fit Bottom, cAMP inhibition / Best-fit Top, cAMP inhibition / Span, cAMP inhibition / Bottom (best-fit value) / Top (best-fit value) / Span (best-fit value) / Span (best-fit) / Bottom (best-fit) / Top (best-fit) / Best-fit Bottom / Best-fit Top / Best-fit Span / Top / Span: scale not given here; settings: L99A, best-fit, runs 1-3
T2 construct: The human full-length SSTRs and mutants were cloned into the pcDNA3.1+ vector; expressed in transfected cells; host or cells: HEK293 (ATCC, CRL-1573)
T2 sequence (P30874 whole entry L99A): as the sequence (P30874 whole entry Y205R) above, with L99A, R205Y counted along it
Summary of the method: as §1

SSTR2 mutants [4] = molecular target: T3, SSTR2 mutants (Homo sapiens, UniProt P30874, Y50A); experiment: as above; type: cell-based; set-up: Best-fit Bottom, cAMP inhibition / Best-fit Top, cAMP inhibition / Span, cAMP inhibition / Bottom (best-fit value) / Top (best-fit value) / Span (best-fit value) / Span (best-fit) / Bottom (best-fit) / Top (best-fit) / Best-fit Bottom / Best-fit Top / Best-fit Span / Top / Span: scale not given here; settings: Y50A, best-fit, runs 1-3
T3 construct: The human full-length SSTRs and mutants were cloned into the pcDNA3.1+ vector; expressed in transfected cells; host or cells: HEK293 (ATCC, CRL-1573)
T3 sequence (P30874 whole entry Y50A): as the sequence (P30874 whole entry Y205R) above, with Y50A, R205Y counted along it
Summary of the method: as §1

SSTR3 mutants [5] = molecular target: SSTR3 mutants (Homo sapiens, UniProt P32745, N104V); experiment: SSTRs Gi-mediated cAMP inhibition, GloSensor, HEK293 (SSTR3 mutants); type: cell-based; set-up: Bottom / Top / Span / Top (best-fit): unit not given here; settings: for Top: best-fit
Sequence of SSTR3 mutants (Homo sapiens, UniProt P32745, N104V) (P32745 whole entry N104V): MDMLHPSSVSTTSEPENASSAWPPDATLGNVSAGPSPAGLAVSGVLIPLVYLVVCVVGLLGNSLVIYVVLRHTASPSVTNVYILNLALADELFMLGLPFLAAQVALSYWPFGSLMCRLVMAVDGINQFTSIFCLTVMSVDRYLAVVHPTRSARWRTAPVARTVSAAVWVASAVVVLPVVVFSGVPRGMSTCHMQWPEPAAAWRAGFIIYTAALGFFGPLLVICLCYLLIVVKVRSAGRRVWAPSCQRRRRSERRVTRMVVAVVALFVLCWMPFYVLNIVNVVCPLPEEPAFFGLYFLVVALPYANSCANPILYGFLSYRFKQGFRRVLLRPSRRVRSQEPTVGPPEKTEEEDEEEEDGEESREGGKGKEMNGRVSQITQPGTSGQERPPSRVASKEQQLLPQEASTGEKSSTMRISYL
Experimental: (§2) The levels of the intracellular 3′, 5′-cyclic AMP (cAMP) were measured by the GloSensor cAMP assay (Promega) as described in the previous studies[28],[41] which has been widely used. The human full-length SSTRs and mutants were cloned into the pcDNA3.1+ vector with a HA signal sequence followed by a Flag tag at the N-terminus. […] Cells were then co-transfected with SSTR wild-type or mutants and GloSensor plasmids. After 24 h of transfection, the cells were dissociated with TrypLE™ Express Enzyme (1X) (Thermo Fisher Scientific) and collected by centrifugation at 500 × g for 5 min. Then the collected cells were suspended in Hank’s balanced salt solution [HBSS (Thermo Fisher Scientific)] supplemented with […] potassium salt solution (YEASEN), and then the suspension cells were seeded into 96-well plates with 90 μl/well. After incubating at room temperature for 40 min, 5 μM forskolin and ligands diluted in HBSS were added to each well and the plates were incubated at room temperature for 15 min. […] signals were measured using the Synergy H1 microplate reader (BioTek) and the data presented are means of at least three independent experiments.

SSTR3 mutants [6] = experiment: as above; type: cell-based, human; set-up: Bottom / Top / Span / Top (best-fit): unit not given here; settings: H192(45.51)T and N101(2.64)V in SSTR3
Experimental: as §2

SSTR1–5 = experiment: Gi signaling of SSTR1–5, cAMP inhibition, HEK293; type: cell-based, human; settings: SSTR2 versus other SSTRs
Experimental: as §2

SSTR2 mutants [7] = molecular target: SSTR2 mutants (Homo sapiens, UniProt P30874, N276A); experiment: cell-based
Sequence of SSTR2 mutants (Homo sapiens, UniProt P30874, N276A) (P30874 whole entry N276A): as the sequence (P30874 whole entry Y205R) above, with R205Y, N276A counted along it

SSTR2 mutants [8] = molecular target: SSTR2 mutants (Homo sapiens, UniProt P30874, R140A); experiment: cell-based
Sequence of SSTR2 mutants (Homo sapiens, UniProt P30874, R140A) (P30874 whole entry R140A): as the sequence (P30874 whole entry Y205R) above, with R140A, R205Y counted along it

SSTR2 mutants [9] = molecular target: SSTR2 mutants (Homo sapiens, UniProt P30874, Y312A); experiment: cell-based
Sequence of SSTR2 mutants (Homo sapiens, UniProt P30874, Y312A) (P30874 whole entry Y312A): as the sequence (P30874 whole entry Y205R) above, with R205Y, Y312A counted along it

SSTR2 mutants [10] = molecular target: SSTR2 mutants (Homo sapiens, UniProt P30874, I284A); experiment: SSTRs Gi-mediated cAMP inhibition, GloSensor, HEK293, 5 μM forskolin, 15 min room temperature (SSTR2 mutants); type: cell-based; set-up: The human full-length SSTRs and mutants were cloned into the pcDNA3.1+ vector; expressed in transfected cells; host or cells: HEK293 (ATCC, CRL-1573); Best-fit Bottom, cAMP inhibition / Best-fit Top, cAMP inhibition / Span, cAMP inhibition / Bottom (best-fit value) / Top (best-fit value) / Span (best-fit value) / Span (best-fit) / Bottom (best-fit) / Top (best-fit) / Best-fit Bottom / Best-fit Top / Best-fit Span / Top / Span: scale not given here; settings: I284A, best-fit, runs 1-3
Sequence of SSTR2 mutants (Homo sapiens, UniProt P30874, I284A) (P30874 whole entry I284A): as the sequence (P30874 whole entry Y205R) above, with R205Y, I284A counted along it
Experimental: The levels of the intracellular 3′, 5′-cyclic AMP (cAMP) were measured by the GloSensor cAMP assay (Promega) as described in the previous studies[28],[41] which has been widely used. The human full-length SSTRs and mutants were cloned into the pcDNA3.1+ vector with a HA signal sequence followed by a Flag tag at the N-terminus. HEK293 cells (ATCC, CRL-1573) were seeded into 6-well microplates at a density of 1.0 × 10^6 cells/well and cultured for 24 h at 37 °C with 5% CO2. Cells were then co-transfected with SSTR wild-type or mutants and GloSensor plasmids. After 24 h of transfection, the cells were dissociated with TrypLE™ Express Enzyme (1X) (Thermo Fisher Scientific) and collected by centrifugation at 500 × g for 5 min. Then the collected cells were suspended in Hank’s balanced salt solution [HBSS (Thermo Fisher Scientific)] supplemented with […] (YEASEN), and then the suspension cells were seeded into 96-well plates with 90 μl/well. After incubating at room temperature for 40 min, 5 μM forskolin and ligands diluted in HBSS were added to each well and the plates were incubated at room temperature for 15 min. […] were measured using the Synergy H1 microplate reader (BioTek) and the data presented are means of at least three independent experiments.

N#Cc1cccc(-c2ccc3ncc(-c4cc(F)cc(F)c4)c(N4CCC(N)CC4)c3c2)c1O [paltusotine]
EC50 (SSTR2 mutants [1]; EC50, D295F, run 1): 0.324 nM | EC50 (SSTR2 mutants [1]; EC50, D295F, run 2): 0.205 nM | EC50 (SSTR2 mutants [1]; EC50, D295F, run 3): 1.56 nM | EC50 (SSTR2 mutants [1]; EC50, F294Y, run 1): 0.735 nM | EC50 (SSTR2 mutants [1]; EC50, F294Y, run 3): 0.676 nM | EC50 (SSTR2 mutants [1]; EC50, Y205R, run 1): 0.344 nM | EC50 (SSTR2 mutants [1]; EC50, Y205R, run 2): 0.237 nM | Span (SSTR2 mutants [2]): 93.79 and 93.25 and 119.7 | Top (SSTR2 mutants [2]): 101.8 and 93.82 and 123 | Span (SSTR2 mutants [3]): 97 and 104.2 and 101.2 | Top (SSTR2 mutants [3]): 103.3 and 108.8 and 111.2 | Span (SSTR2 mutants [4]): 121 and 122.3 | Top (SSTR2 mutants [4]): 113.5 and 115.2 and 115.4 | EC50 (SSTR3 mutants [5]): 97.8 nM | Top (SSTR3 mutants [5]; SSTR3 N101V-1): 184 | Top (SSTR3 mutants [5]; SSTR3 N101V-2): 142.6 | Top (SSTR3 mutants [5]; SSTR3 N101V-3): 142.6 | Receptor activation of mutants (SSTR3 mutants [6]): increased paltusotine-induced SSTR3 activation | Subtype selectivity (SSTR1–5): highly selective agonist of SSTR2 relative to other SSTR subtypes; also recorded: more potent selectivity for SSTR2; also recorded: higher selectivity and efficacy towards SSTR2 relative to other group 2 SSTRs | EC50 (SSTR2 mutants [7]): 145.2 ± 1.11 nM | EC50 (SSTR2 mutants [8]): 7.8 ± 1.47 nM | EC50 (SSTR2 mutants [9]): 8.13 ± 1.64 nM | Span (SSTR2 mutants [10]): 112.7 and 91.59 and 139.6 | Top (SSTR2 mutants [10]): 112.9 and 105.5 and 122.9
